{"source": "paper PMC10574094", "about": "“Discovery of a SHP2 Degrader with In Vivo Anti-Tumor Activity” (Molecules, 2023)", "key": {"ERK1/2, AKT, β-Actin": {"tested_on": "ERK1/2, AKT, β-Actin", "experiment": "Western blot of other signaling proteins in HEK293 cells", "assay_type": "cell-based, human", "settings": "1 μM P9, 16 h", "description": "(§1) HEK293, SKBR3, U2OS, MCF7 and A549 cells were grown in DMEM supplemented with 10% FBS, penicillin (50 units/mL), and streptomycin (50 μg/mL) in a 37 °C incubator containing 5% CO2. KYSE-520 and H358 cells were grown in RPMI-1640 supplemented with 10% FBS, penicillin (50 units/mL), and streptomycin (50 μg/mL) in a 37 °C incubator containing 5% CO2. For western-blot analysis, protein samples were separated by SDS-PAGE, transferred to nitrocellulose membranes, and incubated overnight at 4 °C with corresponding primary antibodies diluted in 5% BSA in phosphate-buffered saline Tween (PBST). SuperSignal™ West Pico PLUS (PI34580; Thermo Scientific) was used to visualize the antibodies in the bioanalytical imaging system (Azure Biosystems c500). Anti-p-ERK1/2 (T202/Y204) (4370), and anti-ERK1/2 (4696) were purchased from Cell Signaling Technology. Anti-GAPDH (sc-365062), anti-SHP2 (sc-7384), anti-SHP1 (sc-7289), and anti-Actin (sc-8432) antibodies were purchased from Santa Cruz. Anti-PTP1B (ab244207) antibody was purchased from Abcam. For colony formation assay, a total of approximately 200–500 cells were seeded to each well in a 12-well plate. The wells were then treated with DMSO, compound P9 and 3 at 37 °C for 3 weeks, gently washed, and stained with crystal violet."}, "CD45": {"biological_target": "CD45 (Homo sapiens, UniProt P08575)", "sequence (P08575 26-1306, species assumed)": "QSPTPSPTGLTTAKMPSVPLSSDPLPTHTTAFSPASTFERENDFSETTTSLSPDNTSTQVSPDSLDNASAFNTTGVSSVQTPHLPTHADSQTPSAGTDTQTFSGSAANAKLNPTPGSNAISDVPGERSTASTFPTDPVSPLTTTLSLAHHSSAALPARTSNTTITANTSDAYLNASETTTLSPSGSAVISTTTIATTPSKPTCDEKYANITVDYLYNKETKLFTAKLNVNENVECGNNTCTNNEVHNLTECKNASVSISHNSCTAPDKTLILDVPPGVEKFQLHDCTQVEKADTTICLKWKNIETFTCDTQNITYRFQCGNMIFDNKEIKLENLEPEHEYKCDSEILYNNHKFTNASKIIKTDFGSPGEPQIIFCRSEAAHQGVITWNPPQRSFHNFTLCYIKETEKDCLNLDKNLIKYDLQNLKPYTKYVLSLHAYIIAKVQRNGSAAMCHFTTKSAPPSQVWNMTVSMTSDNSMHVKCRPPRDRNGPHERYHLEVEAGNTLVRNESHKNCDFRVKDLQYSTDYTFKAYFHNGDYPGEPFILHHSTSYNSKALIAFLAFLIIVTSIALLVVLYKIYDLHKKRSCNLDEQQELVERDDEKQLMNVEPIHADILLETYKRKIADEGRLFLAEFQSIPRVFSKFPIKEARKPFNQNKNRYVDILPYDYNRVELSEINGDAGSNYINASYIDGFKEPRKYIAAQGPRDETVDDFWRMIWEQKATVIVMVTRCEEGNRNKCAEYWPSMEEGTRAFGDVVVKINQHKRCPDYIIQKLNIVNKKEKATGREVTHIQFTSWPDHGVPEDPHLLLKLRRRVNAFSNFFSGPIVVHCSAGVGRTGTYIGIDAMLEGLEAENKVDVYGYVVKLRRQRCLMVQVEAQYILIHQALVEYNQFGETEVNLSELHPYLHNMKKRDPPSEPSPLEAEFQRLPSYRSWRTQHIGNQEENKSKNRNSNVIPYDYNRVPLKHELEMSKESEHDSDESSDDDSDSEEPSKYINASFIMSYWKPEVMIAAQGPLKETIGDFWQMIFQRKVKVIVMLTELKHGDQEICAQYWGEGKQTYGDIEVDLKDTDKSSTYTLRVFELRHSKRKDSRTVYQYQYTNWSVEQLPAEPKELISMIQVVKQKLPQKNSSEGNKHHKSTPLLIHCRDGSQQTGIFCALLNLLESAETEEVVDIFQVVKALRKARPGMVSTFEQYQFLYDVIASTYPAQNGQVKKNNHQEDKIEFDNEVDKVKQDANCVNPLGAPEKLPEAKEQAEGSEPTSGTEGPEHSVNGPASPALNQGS", "experiment": "PTP inhibition assay (pNPP)", "assay_type": "biochemical", "description": "(§2) PTP activity was assayed using p-nitrophenyl phosphate (pNPP) as a substrate in DMG buffer (50 mM DMG, pH 7.0, 1 mM EDTA, 150 mM NaCl, 2 mM DTT, 0.1 mg/mL BSA) at 25 °C. The assays were performed in 96-well plates. To determine the IC50 values, the reaction was initiated by the addition of enzyme (final concentration = 10 nM) to a reaction mixture (0.2 mL) containing pNPP (at a final concentration close to the Kms of tested enzymes, in specific: 0.05 mM for CDC-14A; 0.5 mM for FAP-1; 2 mM for TC-PTP, PTP1B, STEP, LWM-PTP, and PTPα; 3 mM for SHP1; 4 mM for Laforin; 5 mM for LYP, CD45, and VHR; 6 mM for PTP-MEG2 and HePTP) with various concentrations of inhibitors. The reaction rate was measured using a SpectraMax Plus 384 Microplate Spectrophotometer (Molecular Devices, San Jose, CA, USA). Data were fitted using the SigmaPlot Enzyme Kinetics Module (Systat Software, Inc., San Jose, CA, USA)."}, "Laforin": {"biological_target": "Laforin (Homo sapiens, UniProt O95278)", "sequence (O95278 whole entry, species assumed)": "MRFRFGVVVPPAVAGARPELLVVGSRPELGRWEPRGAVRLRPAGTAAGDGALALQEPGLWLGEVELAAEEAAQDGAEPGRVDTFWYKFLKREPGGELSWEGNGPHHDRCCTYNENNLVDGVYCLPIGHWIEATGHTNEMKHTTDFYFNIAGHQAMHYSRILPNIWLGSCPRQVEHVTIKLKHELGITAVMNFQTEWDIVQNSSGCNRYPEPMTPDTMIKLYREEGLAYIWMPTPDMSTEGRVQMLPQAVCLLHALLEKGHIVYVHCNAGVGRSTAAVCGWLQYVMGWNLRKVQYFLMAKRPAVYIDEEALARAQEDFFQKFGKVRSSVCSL", "experiment": "PTP inhibition assay (pNPP)", "assay_type": "biochemical", "description": "as §2"}, "PTP1B": {"biological_target": "PTP1B (Homo sapiens, UniProt P18031)", "sequence (P18031 whole entry, species assumed)": "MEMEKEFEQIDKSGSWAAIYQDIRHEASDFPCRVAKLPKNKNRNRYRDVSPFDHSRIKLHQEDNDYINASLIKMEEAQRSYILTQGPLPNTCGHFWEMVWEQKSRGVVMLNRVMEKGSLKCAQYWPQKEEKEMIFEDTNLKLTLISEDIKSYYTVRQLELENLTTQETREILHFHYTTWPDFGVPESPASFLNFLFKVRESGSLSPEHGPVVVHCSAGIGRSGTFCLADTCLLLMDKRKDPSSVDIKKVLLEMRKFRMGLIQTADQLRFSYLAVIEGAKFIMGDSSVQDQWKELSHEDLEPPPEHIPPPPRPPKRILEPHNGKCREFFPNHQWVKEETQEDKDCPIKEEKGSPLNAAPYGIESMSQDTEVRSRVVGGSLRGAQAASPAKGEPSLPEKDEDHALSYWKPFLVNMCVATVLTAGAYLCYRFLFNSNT", "experiment": "PTP inhibition assay (pNPP)", "assay_type": "biochemical", "description": "as §2"}, "LYP": {"biological_target": "LYP (Homo sapiens, UniProt Q9Y2R2)", "experiment": "PTP inhibition assay (pNPP)", "assay_type": "biochemical", "description": "as §2"}, "CDC-14A": {"biological_target": "CDC-14A (Homo sapiens, UniProt Q9UNH5)", "sequence (Q9UNH5 whole entry, species assumed)": "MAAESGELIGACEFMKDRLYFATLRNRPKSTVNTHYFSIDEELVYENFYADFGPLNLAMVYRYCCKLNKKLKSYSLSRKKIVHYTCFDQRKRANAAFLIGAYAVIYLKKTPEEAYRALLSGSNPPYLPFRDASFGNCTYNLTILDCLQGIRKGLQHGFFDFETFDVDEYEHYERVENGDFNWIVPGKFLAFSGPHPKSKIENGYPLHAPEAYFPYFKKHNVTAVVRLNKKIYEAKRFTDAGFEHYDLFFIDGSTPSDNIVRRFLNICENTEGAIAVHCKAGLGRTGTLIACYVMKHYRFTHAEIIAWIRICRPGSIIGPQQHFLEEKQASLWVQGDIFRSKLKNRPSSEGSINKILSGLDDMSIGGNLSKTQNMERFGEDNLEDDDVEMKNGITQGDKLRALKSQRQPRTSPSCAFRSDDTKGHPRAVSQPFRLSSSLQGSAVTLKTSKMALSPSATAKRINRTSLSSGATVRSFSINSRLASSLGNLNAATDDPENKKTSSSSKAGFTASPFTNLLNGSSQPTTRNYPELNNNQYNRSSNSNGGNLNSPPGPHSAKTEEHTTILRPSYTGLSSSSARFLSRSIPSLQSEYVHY", "experiment": "PTP inhibition assay (pNPP)", "assay_type": "biochemical", "description": "as §2"}, "LMW-PTP": {"biological_target": "LMW-PTP (Homo sapiens, UniProt P24666)", "sequence (P24666 whole entry, species assumed)": "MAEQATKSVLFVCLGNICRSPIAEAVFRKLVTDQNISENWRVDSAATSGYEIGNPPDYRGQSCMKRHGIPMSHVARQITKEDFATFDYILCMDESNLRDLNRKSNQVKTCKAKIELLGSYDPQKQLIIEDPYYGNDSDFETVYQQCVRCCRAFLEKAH", "experiment": "PTP inhibition assay (pNPP)", "assay_type": "biochemical", "description": "as §2"}, "HePTP": {"biological_target": "HePTP (Homo sapiens, UniProt P35236)", "sequence (P35236 whole entry, species assumed)": "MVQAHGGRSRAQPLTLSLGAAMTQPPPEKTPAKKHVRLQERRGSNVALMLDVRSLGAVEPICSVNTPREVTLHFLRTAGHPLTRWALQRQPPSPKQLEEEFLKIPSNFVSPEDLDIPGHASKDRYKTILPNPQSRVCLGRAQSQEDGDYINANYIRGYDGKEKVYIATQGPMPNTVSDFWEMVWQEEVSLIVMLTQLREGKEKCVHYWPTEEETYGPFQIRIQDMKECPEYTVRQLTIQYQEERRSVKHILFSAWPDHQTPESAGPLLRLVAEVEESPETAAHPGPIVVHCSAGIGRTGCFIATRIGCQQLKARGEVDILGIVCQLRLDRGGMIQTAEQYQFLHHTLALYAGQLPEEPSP", "experiment": "PTP inhibition assay (pNPP)", "assay_type": "biochemical", "description": "as §2"}, "TC-PTP": {"biological_target": "TC-PTP (Homo sapiens, UniProt P17706)", "experiment": "PTP inhibition assay (pNPP)", "assay_type": "biochemical", "description": "as §2"}, "FAP-1": {"biological_target": "FAP-1 (Homo sapiens, UniProt Q12923)", "experiment": "PTP inhibition assay (pNPP)", "assay_type": "biochemical", "description": "as §2"}, "PTP-MEG2": {"biological_target": "PTP-MEG2 (Homo sapiens, UniProt P43378)", "sequence (P43378 whole entry)": "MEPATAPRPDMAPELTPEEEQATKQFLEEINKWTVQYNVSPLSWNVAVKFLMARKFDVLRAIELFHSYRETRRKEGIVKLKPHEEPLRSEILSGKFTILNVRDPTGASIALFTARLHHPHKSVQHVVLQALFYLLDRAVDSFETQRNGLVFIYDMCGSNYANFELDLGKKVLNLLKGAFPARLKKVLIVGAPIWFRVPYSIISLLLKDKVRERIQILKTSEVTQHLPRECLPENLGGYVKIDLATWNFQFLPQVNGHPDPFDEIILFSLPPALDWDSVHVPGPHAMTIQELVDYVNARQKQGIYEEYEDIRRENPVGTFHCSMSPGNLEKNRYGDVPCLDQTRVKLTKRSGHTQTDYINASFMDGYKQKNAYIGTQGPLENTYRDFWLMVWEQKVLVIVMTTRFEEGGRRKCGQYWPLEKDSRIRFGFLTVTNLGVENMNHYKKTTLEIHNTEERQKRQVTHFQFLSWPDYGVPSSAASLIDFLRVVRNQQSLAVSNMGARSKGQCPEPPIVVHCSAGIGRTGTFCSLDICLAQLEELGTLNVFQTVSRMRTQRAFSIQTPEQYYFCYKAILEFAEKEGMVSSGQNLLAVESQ", "experiment": "PTP inhibition assay (pNPP)", "assay_type": "biochemical", "description": "as §2"}, "PTP-α": {"biological_target": "PTP-α (Homo sapiens, UniProt P18433)", "experiment": "PTP inhibition assay (pNPP)", "assay_type": "biochemical", "description": "as §2"}, "VHR": {"biological_target": "VHR (Homo sapiens, UniProt P51452)", "experiment": "PTP inhibition assay (pNPP)", "assay_type": "biochemical", "description": "as §2"}, "SHP1": {"biological_target": "SHP1 (Homo sapiens, UniProt P29350)", "sequence (P29350 whole entry)": "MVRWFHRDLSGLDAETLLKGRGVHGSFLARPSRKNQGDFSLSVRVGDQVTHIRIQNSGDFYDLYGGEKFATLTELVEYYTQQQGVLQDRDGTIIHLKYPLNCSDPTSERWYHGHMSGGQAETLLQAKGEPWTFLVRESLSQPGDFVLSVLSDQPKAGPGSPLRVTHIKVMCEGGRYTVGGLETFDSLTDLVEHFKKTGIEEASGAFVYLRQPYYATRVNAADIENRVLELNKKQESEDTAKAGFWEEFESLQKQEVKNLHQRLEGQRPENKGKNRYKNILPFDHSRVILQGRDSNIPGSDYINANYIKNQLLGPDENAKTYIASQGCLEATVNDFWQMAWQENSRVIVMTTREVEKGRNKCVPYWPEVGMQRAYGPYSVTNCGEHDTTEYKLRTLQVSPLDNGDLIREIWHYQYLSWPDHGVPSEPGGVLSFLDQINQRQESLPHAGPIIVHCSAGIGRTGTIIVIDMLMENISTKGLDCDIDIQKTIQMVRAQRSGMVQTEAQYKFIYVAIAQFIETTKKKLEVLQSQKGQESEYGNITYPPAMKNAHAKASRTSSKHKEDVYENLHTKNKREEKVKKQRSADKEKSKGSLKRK", "experiment": "PTP inhibition assay (pNPP)", "assay_type": "biochemical", "description": "as §2"}, "STEP": {"biological_target": "STEP (Homo sapiens, UniProt P54829)", "sequence (P54829 whole entry, species assumed)": "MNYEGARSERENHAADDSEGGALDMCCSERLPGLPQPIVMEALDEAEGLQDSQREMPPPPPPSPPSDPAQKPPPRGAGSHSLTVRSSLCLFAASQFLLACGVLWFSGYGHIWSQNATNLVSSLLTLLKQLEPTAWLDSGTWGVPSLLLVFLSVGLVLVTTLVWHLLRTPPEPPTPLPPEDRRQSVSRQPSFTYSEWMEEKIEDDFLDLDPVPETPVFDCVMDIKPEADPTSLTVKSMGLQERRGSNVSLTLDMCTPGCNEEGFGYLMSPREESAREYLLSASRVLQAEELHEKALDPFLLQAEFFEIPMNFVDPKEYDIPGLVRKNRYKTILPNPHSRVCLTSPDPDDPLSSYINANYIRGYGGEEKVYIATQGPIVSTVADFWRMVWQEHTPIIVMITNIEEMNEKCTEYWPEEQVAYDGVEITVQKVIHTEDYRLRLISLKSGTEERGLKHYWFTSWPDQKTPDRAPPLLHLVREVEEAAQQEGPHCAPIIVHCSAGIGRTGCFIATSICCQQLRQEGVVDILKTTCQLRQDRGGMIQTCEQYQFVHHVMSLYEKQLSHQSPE", "experiment": "PTP inhibition assay (pNPP)", "assay_type": "biochemical", "description": "as §2"}, "SHP2": {"biological_target": "T1, SHP2 (Homo sapiens, UniProt Q06124)", "T1 sequence (Q06124 1-593)": "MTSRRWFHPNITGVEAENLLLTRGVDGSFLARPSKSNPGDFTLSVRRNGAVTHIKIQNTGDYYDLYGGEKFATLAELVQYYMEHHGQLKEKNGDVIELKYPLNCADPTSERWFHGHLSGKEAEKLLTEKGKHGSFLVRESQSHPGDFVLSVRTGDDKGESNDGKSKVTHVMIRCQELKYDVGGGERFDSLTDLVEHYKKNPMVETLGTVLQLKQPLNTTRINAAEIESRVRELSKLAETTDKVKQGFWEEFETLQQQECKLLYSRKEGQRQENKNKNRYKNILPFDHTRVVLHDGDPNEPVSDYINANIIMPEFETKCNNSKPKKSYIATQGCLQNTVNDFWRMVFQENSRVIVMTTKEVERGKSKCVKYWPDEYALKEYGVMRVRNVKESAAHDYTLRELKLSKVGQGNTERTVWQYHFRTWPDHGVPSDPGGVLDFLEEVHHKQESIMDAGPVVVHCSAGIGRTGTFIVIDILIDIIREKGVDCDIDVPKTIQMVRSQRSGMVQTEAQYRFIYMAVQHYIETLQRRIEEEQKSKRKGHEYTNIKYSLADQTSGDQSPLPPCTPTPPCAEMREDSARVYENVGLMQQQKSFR", "experiment": "SHP2 degradation by Western blotting in KYSE-520 cells", "assay_type": "cell-based", "design": "endogenous in cells; host or cells: KYSE-520", "settings": "16 h", "description": "as §1"}, "other PTPs": {"tested_on": "other PTPs", "experiment": "PTP inhibition assay, panel of representative PTP family members", "assay_type": "biochemical", "settings": "up to 10 µM P9 concentration", "description": "as §2"}}}
{"smiles": "Cc1ncsc1-c1ccc([C@H](C)NC(=O)[C@@H]2C[C@@H](O)CN2C(=O)[C@@H](NC(=O)CCCCCCCCCN2CCN(C(=O)CCCCCC3(CN)CCN(c4cnc(Sc5cccc(Cl)c5Cl)c(N)n4)CC3)CC2)C(C)(C)C)cc1", "note": "[P9, (2S,4R)-1-((S)-2-(10-(4-(6-(1-(6-amino-5-((2,3-dichlorophenyl)thio)pyrazin-2-yl)-4-(aminomethyl)piperidin-4-yl)hexanoyl)piperazin-1-yl)decanamido)-3,3-dimethylbutanoyl)-4-hydroxy-N-((S)-1-(4-(4-methylthiazol-5-yl)phenyl)ethyl)pyrrolidine-2-carboxamide]", "values": [{"measurement": "degradation of other signaling proteins", "setting": "ERK1/2, AKT, β-Actin", "result": "did not induce any appreciable degradation"}, {"measurement": "Fold selectivity CD45", "setting": "CD45; over SHP2", "result": "> 105"}, {"measurement": "IC50", "setting": "CD45; pNPP 5 mM", "result": "> 10", "unit": "µM"}, {"measurement": "Fold selectivity Laforin", "setting": "Laforin; over SHP2", "result": "> 105"}, {"measurement": "IC50", "setting": "Laforin; pNPP 4 mM", "result": "> 10", "unit": "µM"}, {"measurement": "Fold selectivity PTP1B", "setting": "PTP1B; over SHP2", "result": "> 105"}, {"measurement": "IC50", "setting": "PTP1B; pNPP 2 mM", "result": "> 10", "unit": "µM"}, {"measurement": "Fold selectivity LYP", "setting": "LYP; over SHP2", "result": "> 105"}, {"measurement": "IC50", "setting": "LYP; pNPP 5 mM", "result": "> 10", "unit": "µM"}, {"measurement": "Fold selectivity CDC-14A", "setting": "CDC-14A; over SHP2", "result": "> 105"}, {"measurement": "IC50", "setting": "CDC-14A; pNPP 0.05 mM", "result": "> 10", "unit": "µM"}, {"measurement": "Fold selectivity LMW-PTP", "setting": "LMW-PTP; over SHP2", "result": "> 105"}, {"measurement": "IC50", "setting": "LMW-PTP; pNPP 2 mM", "result": "> 10", "unit": "µM"}, {"measurement": "Fold selectivity HePTP", "setting": "HePTP; over SHP2", "result": "> 105"}, {"measurement": "IC50", "setting": "HePTP; pNPP 6 mM", "result": "> 10", "unit": "µM"}, {"measurement": "Fold selectivity TC-PTP", "setting": "TC-PTP; over SHP2", "result": "> 105"}, {"measurement": "IC50", "setting": "TC-PTP; pNPP 2 mM", "result": "> 10", "unit": "µM"}, {"measurement": "Fold selectivity FAP-1", "setting": "FAP-1; over SHP2", "result": "> 105"}, {"measurement": "IC50", "setting": "FAP-1; pNPP 0.5 mM", "result": "> 10", "unit": "µM"}, {"measurement": "Fold selectivity PTP-MEG2", "setting": "PTP-MEG2; over SHP2", "result": "> 105"}, {"measurement": "IC50", "setting": "PTP-MEG2; pNPP 6 mM", "result": "> 10", "unit": "µM"}, {"measurement": "Fold selectivity PTP-α", "setting": "PTP-α; over SHP2", "result": "> 105"}, {"measurement": "IC50", "setting": "PTP-α; pNPP 2 mM", "result": "> 10", "unit": "µM"}, {"measurement": "Fold selectivity VHR", "setting": "VHR; over SHP2", "result": "> 105"}, {"measurement": "IC50", "setting": "VHR; pNPP 5 mM", "result": "> 10", "unit": "µM"}, {"measurement": "Fold selectivity SHP1", "setting": "SHP1; over SHP2", "result": "> 105"}, {"measurement": "IC50", "setting": "SHP1; pNPP 3 mM", "result": "> 10", "unit": "µM"}, {"measurement": "Fold selectivity STEP", "setting": "STEP; over SHP2", "result": "> 105"}, {"measurement": "IC50", "setting": "STEP; pNPP 2 mM", "result": "> 10", "unit": "µM"}, {"measurement": "DC50", "setting": "SHP2", "result": "~0.13", "unit": "µM"}, {"measurement": "inhibition towards other PTPs", "setting": "other PTPs", "result": "no significant inhibition"}]}
